One series concerns viable cells in culture. The series is described as follows: Cell viability assay (CellTiter-Glo Luminescent Cell Viability Assay, ATP quantitation, percent of vehicle control). On the technique in general: ATP-based viability assays read luminescence as a measure of living cells.
The test system of series [1] is human TERT expression (hTERT mRNA). The series is described as follows: Quantitative real-time RT-PCR of hTERT mRNA expression (Ct, transcripts) in compound-treated cells. It counts as cell-based. Put shortly: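 Read-out is cycle threshold, the cycle at which probe fluorescence released by Taq 5′-nuclease activity crosses a set level; Ct falls as hTERT mRNA rises. cDNA of treated and untreated cells was compared, with starting transcripts quantified against a known-cDNA standard curve.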
In general terms: Real-time PCR tracks product formation cycle by cycle.

Each structure is given as a SMILES string.

Description for viable cells in culture: Cell viability is determined using a homogeneous method, such as CellTiter-Glo® Luminescent Cell Viability Assay (Promega Corporation, Madison, WI.) to determine the number of viable cells in culture These assays are based on quantitation of the ATP present, which signals the presence of metabolically active cells. Luminescent values of compound treated cells are compared to that of cells treated with vehicle alone to determine the average cell viability as a percent of control.

As for `CCn1c(=S)[nH]c2scc(-c3ccc(OC)cc3)c2c1=O` [compound 1394], the “Average Cell Viability after 24 Hours (% DMSO)” value with viable cells in culture was determined as 100.14 % DMSO. Moreover, the “Average Number of hTERT Transcripts” value in series [1] amounted to 7.00.
As to `O=C(Nc1nc2ccc([N+](=O)[O-])cc2s1)c1cncc(Br)c1` [compound 1395], the “Average Cell Viability after 24 Hours (% DMSO)” value in the series on viable cells in culture is 63.84 % DMSO. Further, the “Average Number of hTERT Transcripts” value in series [1] worked out at 39.44.
For `Cc1cc(OCC(=O)Nc2ccc(S(=O)(=O)Nc3nccs3)cc2)ccc1C(C)C` [compound 1396] the same measures were 88.25 % DMSO and 12.14.
For `O=C(Oc1ccc([N+](=O)[O-])cc1)c1cc(S(=O)(=O)N2CCOCC2)cs1` [compound 1397] the same measures were 96.05 % DMSO and 5.00.
As to `CCCCN(CC)C(=O)CSc1ccccc1` [compound 1398], the “Average Cell Viability after 24 Hours (% DMSO)” value with viable cells in culture is 87.02 % DMSO. Besides, in series [1], the “Average Number of hTERT Transcripts” value was 8.01.
For `COC(=O)COc1ccc2c(=O)c(Oc3ccc(-c4ccccc4)cc3)coc2c1` [compound 1400] the same measures were 80.39 % DMSO and 12.41.
Take `O=C(CSc1nc2ccccc2c(=O)n1-c1ccc(Cl)cc1)Nc1cccc(Cl)c1` [compound 1401]: in the series with viable cells in culture, the “Average Cell Viability after 24 Hours (% DMSO)” value was determined as 96.20 % DMSO. Besides, the “Average Number of hTERT Transcripts” value in series [1] is given as 7.24.
`Cc1oc2cc(OCC(=O)OCc3ccccc3)ccc2c(=O)c1Oc1ccccc1` [compound 1402]: in the series on viable cells in culture, the “Average Cell Viability after 24 Hours (% DMSO)” value is on record as 86.55 % DMSO. For the same molecule, in series [1], the “Average Number of hTERT Transcripts” value was 29.82.
`COc1cc(C2C(C(=O)c3ccc(C)o3)=C(O)C(=O)N2CCCN2CCOCC2)cc(OC)c1OC` (centres unmarked) [compound 1403]: the “Average Cell Viability after 24 Hours (% DMSO)” value with viable cells in culture amounted to 95.26 % DMSO. Also, the “Average Number of hTERT Transcripts” value in series [1] came to 9.95.
On the same counts, the results for `COC(=O)c1ccc(NC(=O)CSc2nnc(CNC(=O)c3ccccc3)n2C)cc1` [compound 1404] are 104.14 % DMSO and 10.87.
For `CCn1c(COc2ccc(C(C)C)cc2)nnc1SCC(=O)Nc1nccs1` [compound 1405] the same measures were 110.82 % DMSO and 3.33.
As for `COc1ccc(C2CC(=O)C3=C(C2)Nc2ccccc2N(C(=O)CCC(=O)O)C3c2cccnc2)cc1OC` (centres unmarked) [compound 1406], in the series on viable cells in culture, the “Average Cell Viability after 24 Hours (% DMSO)” value is 105.29 % DMSO. For the same molecule, the “Average Number of hTERT Transcripts” value in series [1] stood at 4.62.
Take `Cc1nn(-c2cc(N3CCN(S(=O)(=O)c4ccc(Cl)cc4)CC3)ccc2[N+](=O)[O-])c(=O)c2ccccc12` [compound 1407]: in the series on viable cells in culture, the “Average Cell Viability after 24 Hours (% DMSO)” value worked out at 109.75 % DMSO. Moreover, the “Average Number of hTERT Transcripts” value in series [1] is 3.38.
On the same counts, the results for `O=C(NC(c1ccccc1)c1ccc(Br)cc1)c1cccc(F)c1` (centres unmarked) [compound 1408] are 89.70 % DMSO and 3.47.
Turning to `COc1ccc(-c2nnc(SCC(=O)Nc3ccc(S(N)(=O)=O)cc3)o2)cc1` [compound 1409], the “Average Cell Viability after 24 Hours (% DMSO)” value in the series with viable cells in culture turned out to be 86.13 % DMSO. Besides, the “Average Number of hTERT Transcripts” value in series [1] is recorded as 18.63.
On the same counts, the results for `O=C(Nc1nc(COc2ccccc2)cs1)c1sc2cc(Cl)ccc2c1Cl` [compound 1410] are 75.12 % DMSO and 8.90.
Consider `CC(C)(C)c1ccc(C(=O)NC(=S)Nc2c(Cl)cc(Cl)cc2Cl)cc1` [compound 1411], for which, in the series on viable cells in culture, the “Average Cell Viability after 24 Hours (% DMSO)” value was determined as 92.66 % DMSO. Besides, in series [1], the “Average Number of hTERT Transcripts” value amounted to 10.04.
For `CCOC(=O)c1ccc(NC(=O)CSc2nnc(-c3ccc(OC)cc3)o2)cc1` [compound 1412] the same measures were 92.98 % DMSO and 6.19.
Regarding `CCOC(=O)COc1ccc(S(=O)(=O)Nc2ccc(C(=O)OC)cc2)cc1` [compound 1413], in the series with viable cells in culture, the “Average Cell Viability after 24 Hours (% DMSO)” value amounted to 80.11 % DMSO. Further, the “Average Number of hTERT Transcripts” value in series [1] is listed as 25.20.
For the molecule `COC(=O)COc1ccc(NC(=O)c2ccc(F)cc2)cc1` [compound 1414], the “Average Cell Viability after 24 Hours (% DMSO)” value with viable cells in culture is on record as 69.42 % DMSO. Also, the “Average Number of hTERT Transcripts” value in series [1] is reported as 203.88.
For `COC(=O)COc1ccc(S(=O)(=O)N(C)Cc2ccccc2)cc1` [compound 1415] the same measures were 79.96 % DMSO and 30.51.
`COc1ccc(OC)c(N(C(=O)Cc2ccccc2)c2nc(-c3ccc(C)cc3)c(C)s2)c1` [compound 1416]: the “Average Cell Viability after 24 Hours (% DMSO)” value in the series on viable cells in culture stood at 95.26 % DMSO. In series [1], the “Average Number of hTERT Transcripts” value worked out at 15.42.
Consider `COc1ccc(C(=O)NC(=S)Nc2ccc(Nc3ccccc3)cc2)cc1Br` [compound 1417], for which the “Average Cell Viability after 24 Hours (% DMSO)” value in the series with viable cells in culture is on record as 92.17 % DMSO. Moreover, in series [1], the “Average Number of hTERT Transcripts” value was 5.13.
In the case of `O=C(NC(=S)Nc1cc([N+](=O)[O-])ccc1O)c1ccc(Br)o1` [compound 1418], the “Average Cell Viability after 24 Hours (% DMSO)” value with viable cells in culture worked out at 94.19 % DMSO. The “Average Number of hTERT Transcripts” value in series [1] is on record as 42.80.
`CCC(=O)NC(=S)Nc1ccccc1C#N` [compound 1419]: the “Average Cell Viability after 24 Hours (% DMSO)” value in the series on viable cells in culture is recorded as 87.51 % DMSO. In series [1], the “Average Number of hTERT Transcripts” value was found to be 5.40.
For `Cc1cc(C)c(S(=O)(=O)Nc2ccccc2C(=O)NCCc2ccccc2)c(C)c1` [compound 1420] the same measures were 73.35 % DMSO and 57.36.
On the same counts, the results for `COc1ccc(S(=O)(=O)N(CC(=O)NC2CC3CCC2C3)c2ccccc2)cc1OC` (centres unmarked) [compound 1421] are 104.42 % DMSO and 6.96.
For the molecule `CC1CCN(C(=S)NC(=O)c2sc3ccccc3c2Cl)CC1` [compound 1422], the “Average Cell Viability after 24 Hours (% DMSO)” value in the series on viable cells in culture came out at 102.65 % DMSO. The “Average Number of hTERT Transcripts” value in series [1] is on record as 19.95.
On the same counts, the results for `Cc1ccc(S(=O)(=O)Nc2ccccc2C(=O)NCCc2ccccc2)cc1[N+](=O)[O-]` [compound 1424] are 94.37 % DMSO and 37.45.
In the case of `Cc1ccc2nc(-c3ccc(NC(=S)NC(=O)CCc4ccccc4)cc3)sc2c1` [compound 1425], the “Average Cell Viability after 24 Hours (% DMSO)” value in the series with viable cells in culture came out at 79.15 % DMSO. Besides, the “Average Number of hTERT Transcripts” value in series [1] was determined as 17.07.
On the same counts, the results for `Cc1cccc(NC(=O)CSc2nnc(CNC(=O)c3ccc(Br)cc3)n2C)c1` [compound 1427] are 107.40 % DMSO and 5.16.
For `O=C(NCCc1ccccc1)c1ccc(NC(=O)C2(c3ccccc3)CCCC2)cc1` [compound 1428] the same measures were 92.20 % DMSO and 7.81.
For the molecule `O=C(Cn1c(=O)oc2ccccc21)Nc1cc(Cl)ccc1Cl` [compound 1429], the “Average Cell Viability after 24 Hours (% DMSO)” value in the series with viable cells in culture is 83.97 % DMSO. In addition, the “Average Number of hTERT Transcripts” value in series [1] was found to be 13.70.
Consider `O=C(NCC1COc2ccccc2O1)c1ccc(NC(=O)C2COc3ccccc3O2)cc1` (centres unmarked) [compound 1430], for which the “Average Cell Viability after 24 Hours (% DMSO)” value with viable cells in culture is listed as 88.00 % DMSO. In addition, the “Average Number of hTERT Transcripts” value in series [1] is listed as 23.55.
For `CCC(C)NS(=O)(=O)c1ccc(NC(=O)CN2C(=O)c3ccccc3C2=O)cc1` (centres unmarked) [compound 1431] the same measures were 100.20 % DMSO and 9.12.
On the same counts, the results for `CCC(=O)Oc1cccc2ccc(/C=C/c3ccccc3Cl)nc12` [compound 1432] are 86.95 % DMSO and 19.46.
For `Cc1ccc(NS(=O)(=O)c2ccc(NC(=O)C(c3ccccc3)c3ccccc3)cc2)cc1C` [compound 1433] the same measures were 75.77 % DMSO and 45.43.
`CC(=O)C1=C(C)NC(SCC(=O)Nc2sc3c(c2C#N)CCCC3)=C(C#N)C1c1ccc(Cl)cc1` (centres unmarked) [compound 1434]: the “Average Cell Viability after 24 Hours (% DMSO)” value with viable cells in culture worked out at 72.00 % DMSO. In addition, the “Average Number of hTERT Transcripts” value in series [1] stood at 25.17.
Take `COC(=O)CSc1nnc(-c2sc3cc(Cl)ccc3c2Cl)n1C` [compound 1435]: the “Average Cell Viability after 24 Hours (% DMSO)” value in the series with viable cells in culture is 60.23 % DMSO. In addition, in series [1], the “Average Number of hTERT Transcripts” value came out at 48.10.
On the same counts, the results for `O=C(Nc1ccccc1OC(F)F)C(c1ccccc1)c1ccccc1` [compound 1436] are 82.48 % DMSO and 8.14.
For `COC(=O)COc1ccc(S(=O)(=O)N2CCCC2)cc1Cl` [compound 1437] the same measures were 79.26 % DMSO and 22.13.
For `O=C(CC(NC1CCCCC1)C(=O)O)Nc1cccc([N+](=O)[O-])c1` (centres unmarked) [compound 1438] the same measures were 97.89 % DMSO and 8.29.
As to `CC(=O)c1ccc(NC(=S)Nc2ccc(Br)c(Cl)c2)cc1` [compound 1439], the “Average Cell Viability after 24 Hours (% DMSO)” value in the series with viable cells in culture was determined as 51.61 % DMSO. For the same molecule, the “Average Number of hTERT Transcripts” value in series [1] came out at 11.63.
As to `COC(=O)c1sc(NC(=S)NCc2cccnc2)c(C(=O)OC)c1C` [compound 1440], the “Average Cell Viability after 24 Hours (% DMSO)” value with viable cells in culture stood at 99.11 % DMSO. Further, in series [1], the “Average Number of hTERT Transcripts” value was determined as 13.85.
As for `CCOC(=O)N1CCN(C(=O)CCc2ccc(S(=O)(=O)NCCc3ccccc3)cc2)CC1` [compound 1441], in the series with viable cells in culture, the “Average Cell Viability after 24 Hours (% DMSO)” value is reported as 101.03 % DMSO. Moreover, the “Average Number of hTERT Transcripts” value in series [1] was determined as 5.06.
For `CCOc1ccc(NC(=O)Nc2cccc(C(C)=O)c2)c([N+](=O)[O-])c1` [compound 1442] the same measures were 84.87 % DMSO and 7.65.

The record behind these values is patent publication US12404304B1, “Telomerase reverse transcriptase (TERT) expression enhancing compounds and methods for using the same” (Sierra Sciences, LLC, priority 2007, dated 2025).
